Reference: paper PMC8956739, “A synthetic lipopeptide targeting top-priority multidrug-resistant Gram-negative pathogens” (Nature Communications, 2022)
≈ marks a conversion by molar mass, not a printed value. Where “and” joins values, the source holds several entries; their conditions need not be identical. Identical values can stand only once. Like-named read-outs stand apart in the source and are kept apart here. Residues, ends and D or L forms follow the SMILES beside them.

Columns and labels:
[1] = test system: A. baumannii AB5075; assay type: cell-based, Acinetobacter baumannii
How it was run: (§1)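 Each strain is tested in cation-adjusted Mueller–Hinton broth using the micro-dilution technique, and growth inhibition gives the MIC.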

[2] = test system: A. baumannii ATCC 19606; assay type: cell-based, Acinetobacter baumannii
How it was run: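 Susceptibility: microdilution MIC in CaMHB.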

[3] = test system: A. baumannii FADDI-AB030; assay type: cell-based, Acinetobacter baumannii
How it was run: as §1

[4] = test system: A. baumannii FADDI-AB034; assay type: cell-based, Acinetobacter baumannii
How it was run: as §1

[5] = test system: MDR clinical isolates of A. baumannii (n = 210, 200 carbapenem-resistant); assay type: cell-based, Acinetobacter baumannii
How it was run: as §1

[6] = test system: A. baumannii AB5075; assay: In vitro passaging, emergence of resistance; assay type: cell-based, Acinetobacter baumannii; details: for time to emergence of resistance: 4× MIC, 7-day passaging; for growth over 7 days: 32× MIC
Procedure: Log-phase cultures (OD600 = 0.5, ~10^8 CFU/mL) of A. baumannii AB5075 were inoculated (1:10, v/v) in 200 μL fresh CaMHB (cation-adjusted Mueller–Hinton broth) containing 2, 8 and 16 μg/mL polymyxin B, colistin, F287, and F365 in a 96-well microplate with 4 biological replicates. The cultures were incubated at 37 °C for 12 h before the next dilution (1:10, v/v) with fresh CaMHB. Successive subculturing was conducted for 7 days.

[7] = test system: P. aeruginosa PAM1626; assay: Efflux inhibition assay (Leu-Nap hydrolysis), efflux-deficient strain; assay type: cell-based, Pseudomonas aeruginosa
Procedure: Bacterial strains were seeded in 50 mL of Luria-Bertani (LB) broth at OD600 0.05 and grown at 37 °C for 3-4 h until an OD600 of 0.6–0.8 was achieved. Bacterial cells were washed twice with 25 mL of buffer (50 mM sodium phosphate, 0.5% glucose, pH 7, with or without 1 mM Mg^2+), resuspended in 10 mL of the buffer, and then adjusted to an OD600 of 0.4. […] Bacterial suspension (50 μL, OD600 0.4) in buffer was added to the lipopeptide solutions and the rate of substrate hydrolysis was measured at 490 nm.
Activity of F365 and polymyxin B in the efflux inhibition assay.
One of the consequences of disruption/permeabilization of the cytoplasmic membrane by polymyxins is the dissipation of the proton gradient across the cytoplasmic membrane. […]
these compounds are expected to inhibit proton-dependent transport activity across the cytoplasmic membrane including efflux. Efflux activity and its inhibition by F365 was assessed by examining the rates of hydrolysis of a fluorogenic substrate of efflux pumps, Leu-Nap, by intact cells of P. aeruginosa. For these experiments we used two strains of P. aeruginosa, PAM1723 and PAM1626. PAM1723 overexpresses the efflux pump MexAB-OprM and PAM1626 lacks this pump as well as several other pumps that extrude Leu-Nap. […] The rate of production of β-naphthylamine (recorded as an increase in fluorescence) is limited by the rate of entry of Leu-Nap into the cells. […]

[8] = Cell viability after 24 h treatment; assay type: cell-based, human; details: human, KCNJ16 knockout HK-2 cells (kidney proximal tubular), Cell viability, KCNJ16 KO, KCNJ16 knockout HK-2 cells, 24 h, Fig. 6b
Procedure: (§2) Fig. 6 Transcriptomic changes in human kidney proximal tubular HK-2 cells following treatments with polymyxin B (PMB), colistin (COL), F287, F319, and F365. a Numbers of differentially expressed genes. Distinctive intersections are color-coded. b Cell viability difference (two-tailed Student’s t-test, n = 4 biologically independent cells, Benjamini–Hochberg adjusted P-values) between wild-type HK-2 and KCNJ16 knockout (KO) cells following 24 h treatment with lipopeptides. n.s., not significant; ^*adjusted P < 0.05, ^**adjusted P < 0.01, ^***adjusted P < 0.001. Data are shown as mean ± s.d. and individual data points. c Extracted transcriptional regulatory network from Signor database with 1-step neighbor constraints (enlarged for detail). Source data are provided as a Source Data file.

[9] = test system: KCNJ16 knockout HK-2 cells; assay: Cell viability after 24 h treatment; assay type: cell-based, human
Procedure: as §2

[10] = MDR clinical isolates of (n = 210, 200 carbapenem-resistant)
[11] = 8 ug/mL, time 0 h, passage 0, replicates rep1-rep4, raw OD600 (blank OD600 0.125333)
[12] = 8 ug/mL, time 12 h, passage 1, replicates rep1-rep4, raw OD600 (blank OD600 0.114667)
[13] = 8 ug/mL, time 24 h, passage 2, replicates rep1-rep4, raw OD600 (blank OD600 0.0956667)
[14] = 8 ug/mL, time 36 h, passage 3, replicates rep1-rep4, raw OD600 (blank OD600 0.088)
[15] = 8 ug/mL, time 48 h, passage 4, replicates rep1-rep4, raw OD600 (blank OD600 0.104667)
[16] = 8 ug/mL, time 60 h, passage 5, replicates rep1-rep4, raw OD600 (blank OD600 0.122333)
[17] = 8 ug/mL, time 72 h, passage 6, replicates rep1-rep4, raw OD600 (blank OD600 0.095)
[18] = 8 ug/mL, time 84 h, passage 7, replicates rep1-rep4, raw OD600 (blank OD600 0.091)
[19] = 8 ug/mL, time 96 h, passage 8, replicates rep1-rep4, raw OD600 (blank OD600 0.0953333)
[20] = 8 ug/mL, time 108 h, passage 9, replicates rep1-rep4, raw OD600 (blank OD600 0.100667)
[21] = 8 ug/mL, time 120 h, passage 10, replicates rep1-rep4, raw OD600 (blank OD600 0.0983333)
[22] = 8 ug/mL, time 132 h, passage 11, replicates rep1-rep4, raw OD600 (blank OD600 0.0843333)
[23] = 8 ug/mL, time 144 h, passage 12, replicates rep1-rep4, raw OD600 (blank OD600 0.091)
[24] = 8 ug/mL, time 156 h, passage 13, replicates rep1-rep4, raw OD600 (blank OD600 0.129)
[25] = in vitro passaging, concentration 8 ug/mL, time 168 h, passage 14, individual replicates rep1-rep4, not blank-subtracted (blank OD600 0.101)

CC[C@@H]1NC(=O)[C@@H](CC(C)C)NC(=O)[C@H](CCN)NC(=O)[C@@H](NC(=O)[C@H](CN)NC(=O)[C@@H](NC(=O)[C@H](CCN)NC(=O)c2ccc(Cl)cc2Cl)[C@@H](C)O)CCNC(=O)[C@H]([C@@H](C)O)NC(=O)[C@H](CCN)NC(=O)[C@H](CCN)NC1=O [Lipopeptide F365] (HELM PEPTIDE1{[O=C(c1ccc(Cl)cc1Cl)[*:2]].[Dab].T.[NC[C@H](N[*:1])C(=O)[*:2]].[Dab].[Dab].[dL].[Abu].[Dab].[Dab].T}$PEPTIDE1,PEPTIDE1,5:R3-11:R2$$$V2.0)
MIC A. baumannii AB5075 ([1]; AB5075): 0.5 µg/mL (≈ 0.431 µM) | MIC A. baumannii ATCC 19606 ([2]; ATCC 19606): 0.25 µg/mL (≈ 0.215 µM) | MIC A. baumannii FADDI-AB030 ([3]; FADDI-AB030): 0.25 µg/mL (≈ 0.215 µM) | MIC A. baumannii FADDI-AB034 ([4]; FADDI-AB034): 0.25 µg/mL (≈ 0.215 µM) | MIC50 [5, 10]: 0.25 µg/mL (≈ 0.215 µM) | MIC90 [5, 10]: 1 µg/mL (≈ 0.862 µM) | potency relative to polymyxin B ([5]; MIC50/MIC90, A. baumannii panel): ≤ 4 fold | Number of isolates ([5]; isolates with MIC 0.05 µg/mL): 1 | Number of isolates ([5]; isolates with MIC 0.125 µg/mL): 7 | Number of isolates ([5]; isolates with MIC 0.25 µg/mL): 99 | Number of isolates ([5]; isolates with MIC 0.5 µg/mL): 81 | Number of isolates ([5]; isolates with MIC 1 µg/mL): 8 | Number of isolates ([5]; isolates with MIC 2 µg/mL): 9 | Number of isolates ([5]; isolates with MIC 4 µg/mL): 1 | Number of isolates ([5]; isolates with MIC 8 µg/mL): 0 | Number of isolates ([5]; isolates with MIC 16 µg/mL): 1 | Number of isolates ([5]; isolates with MIC 32 µg/mL): 2 | Number of isolates ([5]; isolates with MIC 64 µg/mL): 1 | Number of isolates ([5]; isolates with MIC >64 µg/mL): 0 | OD600 [6, 11]: 0.207 and 0.177 and 0.165 and 0.164 | OD600 [6, 12]: 0.193 and 0.169 and 0.147 and 0.152 | OD600 [6, 13]: 0.091 and 0.092 and 0.09 | OD600 [6, 14]: 0.091 and 0.09 and 0.092 | OD600 [6, 15]: 0.091 and 0.094 and 0.101 | OD600 [6, 16]: 0.112 and 0.116 and 0.106 and 0.123 | OD600 [6, 17]: 0.092 and 0.085 and 0.096 | OD600 [6, 18]: 0.089 and 0.091 and 0.092 and 0.093 | OD600 [6, 19]: 0.09 and 0.092 and 0.097 and 0.093 | OD600 [6, 20]: 0.111 and 0.118 and 0.121 and 0.105 | OD600 [6, 21]: 0.118 and 0.132 and 0.121 and 0.13 | OD600 [6, 22]: 0.12 and 0.124 and 0.123 and 0.117 | OD600 [6, 23]: 0.126 and 0.122 and 0.125 and 0.13 | OD600 [6, 24]: 0.117 and 0.116 and 0.13 and 0.112 | OD600 ([6]; 8 ug/mL, time 168 h, passage 14, replicates rep1-rep4, raw OD600 (blank OD600 0.101)): 0.095 and 0.092 | time to emergence of resistance [6]: ≤ 3 days | growth over 7 days [6]: No growth | OD600 [6, 25]: 0.093 and 0.094 | effect on the rate of Leu-Nap hydrolysis [7]: no effect | viability at 24 h ([8]; Rep1, replicate 1, read-out: Cell viability, KCNJ16 KO, Rep1): 76% | viability at 24 h ([8]; Rep2, replicate 2, read-out: Cell viability, KCNJ16 KO, Rep2): 94.1% | viability at 24 h ([8]; Rep3, replicate 3, read-out: Cell viability, KCNJ16 KO, Rep3): 100% | viability at 24 h ([8]; Rep4, replicate 4, read-out: Cell viability, KCNJ16 KO, Rep4): 73.7% | effect on cell viability ([9]; 24 h treatment): no effect on cell viability

Polymyxin B [reference compound]
MIC A. baumannii AB5075 [1]: 0.5 µg/mL | MIC A. baumannii ATCC 19606 [2]: 1 µg/mL | MIC A. baumannii FADDI-AB030 ([3]; carbapenem-resistant isolate): 0.25 µg/mL | MIC A. baumannii FADDI-AB034 ([4]; carbapenem-resistant isolate): 0.5 µg/mL | MIC50 ([5]; A. baumannii n = 210): 1 µg/mL | MIC90 ([5]; A. baumannii n = 210): 4 µg/mL | Number of isolates ([5]; isolates with MIC 0.05 µg/mL): 0 | Number of isolates ([5]; isolates with MIC 0.125 µg/mL): 0 | Number of isolates ([5]; isolates with MIC 0.25 µg/mL): 0 | Number of isolates ([5]; isolates with MIC 0.5 µg/mL): 24 | Number of isolates ([5]; isolates with MIC 1 µg/mL): 120 | Number of isolates ([5]; isolates with MIC 2 µg/mL): 47 | Number of isolates ([5]; isolates with MIC 4 µg/mL): 11 | Number of isolates ([5]; isolates with MIC 8 µg/mL): 5 | Number of isolates ([5]; isolates with MIC 16 µg/mL): 2 | Number of isolates ([5]; isolates with MIC 32 µg/mL): 0 | Number of isolates ([5]; isolates with MIC 64 µg/mL): 0 | Number of isolates ([5]; isolates with MIC >64 µg/mL): 0 | regrowth observed from day [6]: 3 days | OD600 [6, 11]: 0.153 and 0.134 and 0.139 and 0.14 | OD600 [6, 12]: 0.127 and 0.115 and 0.123 and 0.124 | OD600 [6, 13]: 0.086 and 0.093 and 0.096 and 0.083 | OD600 [6, 14]: 0.088 and 0.089 and 0.094 and 0.092 | OD600 [6, 15]: 0.096 and 0.099 and 0.098 and 0.101 | OD600 [6, 16]: 0.108 and 0.105 and 0.103 and 0.116 | OD600 [6, 17]: 0.092 and 0.093 and 0.083 and 0.091 | OD600 [6, 18]: 0.1 and 0.081 and 0.084 and 0.089 | OD600 [6, 19]: 0.192 and 0.105 and 0.119 and 0.106 | OD600 [6, 20]: 0.179 and 0.108 and 0.11 and 0.118 | OD600 [6, 21]: 0.215 and 0.139 and 0.136 and 0.132 | OD600 [6, 22]: 0.198 and 0.19 and 0.197 and 0.21 | OD600 [6, 23]: 0.2 and 0.22 and 0.217 and 0.231 | OD600 [6, 24]: 0.176 and 0.181 and 0.195 and 0.201 | time to emergence of resistance [6]: ≤ 3 days | growth over 7 days [6]: No growth | OD600 [6, 25]: 0.177 and 0.182 and 0.195 and 0.205 | effect on the rate of Leu-Nap hydrolysis [7]: no effect | Cell viability, KCNJ16 KO, Rep1 ([9]; KCNJ16 knockout HK-2 cells, 24 h, replicate 1, Fig. 6b): 61.7446 | Cell viability, KCNJ16 KO, Rep2 ([9]; KCNJ16 knockout HK-2 cells, 24 h, replicate 2, Fig. 6b): 73.0677 | Cell viability, KCNJ16 KO, Rep3 ([9]; KCNJ16 knockout HK-2 cells, 24 h, replicate 3, Fig. 6b): 75.1154 | Cell viability, KCNJ16 KO, Rep4 ([9]; KCNJ16 knockout HK-2 cells, 24 h, replicate 4, Fig. 6b): 76.9625
